According to the supplement of paper PMC10307832:

Assays:
Assay in all cases: relative viability (nuclei count vs DMSO), 5 days (fraction); higher = more cells survive
[1] = compound: C=CC(=O)N1CCC[C@@H](n2nc(-c3ccc(Oc4ccccc4)cc3)c3c(N)ncnc32)C1 [Ibrutinib] + CS(=O)(=O)N1CCN(Cc2cc3nc(-c4cccc5[nH]ncc45)nc(N4CCOCC4)c3s2)CC1 [Pictilisib] (partner 1 µM)
In short: (§1)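 Nuclei were stained with Hoechst during a one-step fixation (final 0.05% Triton X-100, 1% formaldehyde, 1 ug/ml Hoechst) carried out 5 days after dosing, then counted on 4× images. The cells, lung cancer lines in 1536-well plates, had been dosed by pin tool the day after seeding with one drug alone or a fixed anchor-drug dose plus five library-drug doses (not always all listed) in √10 steps. Relative viability is the nuclei count in treated wells divided by that in vehicle wells, and each value is the median of duplicate plates.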

[2] = compound: C=CC(=O)Nc1cc(-n2c(=O)ccc3cnc4ccc(-c5ccc(NS(C)(=O)=O)cc5)cc4c32)ccc1C [BMX-IN-1] + CS(=O)(=O)N1CCN(Cc2cc3nc(-c4cccc5[nH]ncc45)nc(N4CCOCC4)c3s2)CC1 [Pictilisib] (partner 1 µM)
In short: as §1

[3] = compound: C=CC(=O)Nc1cc(-n2c(=O)ccc3cnc4ccc(-c5ccc(NS(C)(=O)=O)cc5)cc4c32)ccc1C [BMX-IN-1] + CS(=O)(=O)CCNCc1ccc(-c2ccc3ncnc(Nc4ccc(OCc5cccc(F)c5)c(Cl)c4)c3c2)o1 [Lapatinib] (partner 2 µM)
In short: as §1

[4] = compound: C=CC(=O)Nc1cc(-n2c(=O)ccc3cnc4ccc(-c5ccc(NS(C)(=O)=O)cc5)cc4c32)ccc1C [BMX-IN-1] + O=C(c1cc(Cc2n[nH]c(=O)c3ccccc23)ccc1F)N1CCN(C(=O)C2CC2)CC1 [Olaparib] (partner 8 µM)
In short: as §1

## NCI-H2228
[1]; first compound 0.005 µM
  relative viability: 0.316
[1]; first compound 0.01581 µM
  relative viability: 0.486
[1]; first compound 0.05 µM
  relative viability: 0.276
[1]; first compound 0.1581 µM
  relative viability: 0.433
[1]; first compound 0.5 µM
  relative viability: 0.386
[2]; first compound 0.02 µM
  relative viability: 0.578
[2]; first compound 0.2 µM
  relative viability: 0.471
[2]; first compound 0.6325 µM
  relative viability: 0.443
[2]; first compound 2 µM
  relative viability: 0.432
[3]; first compound 0.02 µM
  relative viability: 1.89
[3]; first compound 0.2 µM
  relative viability: 1.09
[3]; first compound 0.6325 µM
  relative viability: 1.52
[3]; first compound 2 µM
  relative viability: 0.929
[4]; first compound 0.02 µM
  relative viability: 0.768
[4]; first compound 0.2 µM
  relative viability: 0.835
[4]; first compound 0.6325 µM
  relative viability: 0.667
[4]; first compound 2 µM
  relative viability: 0.784

## NCI-H2347
[1]; first compound 0.005 µM
  relative viability: 0.648
[1]; first compound 0.01581 µM
  relative viability: 0.672
[1]; first compound 0.05 µM
  relative viability: 0.587
[1]; first compound 0.1581 µM
  relative viability: 0.299
[1]; first compound 0.5 µM
  relative viability: 0.535
[2]; first compound 0.02 µM
  relative viability: 0.748
[2]; first compound 0.2 µM
  relative viability: 0.576
[2]; first compound 0.6325 µM
  relative viability: 0.613
[2]; first compound 2 µM
  relative viability: 0.748
[3]; first compound 0.02 µM
  relative viability: 1.01
[3]; first compound 0.2 µM
  relative viability: 1.06
[3]; first compound 0.6325 µM
  relative viability: 0.991
[3]; first compound 2 µM
  relative viability: 0.944
[4]; first compound 0.02 µM
  relative viability: 0.523
[4]; first compound 0.2 µM
  relative viability: 0.603
[4]; first compound 0.6325 µM
  relative viability: 0.597
[4]; first compound 2 µM
  relative viability: 0.573

## NCI-H2405
[1]; first compound 0.005 µM
  relative viability: 0.33
[1]; first compound 0.01581 µM
  relative viability: 0.384
[1]; first compound 0.05 µM
  relative viability: 0.282
[1]; first compound 0.5 µM
  relative viability: 0.485
[2]; first compound 0.02 µM
  relative viability: 0.505
[2]; first compound 0.2 µM
  relative viability: 0.444
[2]; first compound 0.6325 µM
  relative viability: 0.484
[2]; first compound 2 µM
  relative viability: 0.393
[3]; first compound 0.02 µM
  relative viability: 1.15
[3]; first compound 0.2 µM
  relative viability: 1.04
[3]; first compound 0.6325 µM
  relative viability: 1.09
[3]; first compound 2 µM
  relative viability: 1.05
[4]; first compound 0.02 µM
  relative viability: 0.958
[4]; first compound 0.2 µM
  relative viability: 0.958
[4]; first compound 0.6325 µM
  relative viability: 0.977
[4]; first compound 2 µM
  relative viability: 0.865

## NCI-H3122
[1]; first compound 0.005 µM
  relative viability: 0.563
[1]; first compound 0.01581 µM
  relative viability: 0.61
[1]; first compound 0.05 µM
  relative viability: 0.69
[1]; first compound 0.1581 µM
  relative viability: 0.375
[1]; first compound 0.5 µM
  relative viability: 0.533
[2]; first compound 0.02 µM
  relative viability: 0.689
[2]; first compound 0.2 µM
  relative viability: 0.632
[2]; first compound 0.6325 µM
  relative viability: 0.571
[2]; first compound 2 µM
  relative viability: 0.675
[3]; first compound 0.02 µM
  relative viability: 1.1
[3]; first compound 0.2 µM
  relative viability: 1.08
[3]; first compound 0.6325 µM
  relative viability: 0.988
[3]; first compound 2 µM
  relative viability: 1.05
[4]; first compound 0.02 µM
  relative viability: 0.678
[4]; first compound 0.2 µM
  relative viability: 0.781
[4]; first compound 0.6325 µM
  relative viability: 0.672
[4]; first compound 2 µM
  relative viability: 0.64

## PC-3 [JPC-3]
[1]; first compound 0.005 µM
  relative viability: 0.621
[1]; first compound 0.01581 µM
  relative viability: 0.685
[1]; first compound 0.05 µM
  relative viability: 0.686
[1]; first compound 0.1581 µM
  relative viability: 0.531
[1]; first compound 0.5 µM
  relative viability: 0.528
[2]; first compound 0.02 µM
  relative viability: 0.812
[2]; first compound 0.2 µM
  relative viability: 0.839
[2]; first compound 0.6325 µM
  relative viability: 0.756
[2]; first compound 2 µM
  relative viability: 0.788
[3]; first compound 0.02 µM
  relative viability: 0.533
[3]; first compound 0.2 µM
  relative viability: 0.466
[3]; first compound 0.6325 µM
  relative viability: 0.47
[3]; first compound 2 µM
  relative viability: 0.476
[4]; first compound 0.02 µM
  relative viability: 1.25
[4]; first compound 0.2 µM
  relative viability: 1.46
[4]; first compound 0.6325 µM
  relative viability: 1.06
[4]; first compound 2 µM
  relative viability: 1.1

## PC-14
[1]; first compound 0.005 µM
  relative viability: 0.72
[1]; first compound 0.01581 µM
  relative viability: 0.621
[1]; first compound 0.05 µM
  relative viability: 0.558
[1]; first compound 0.1581 µM
  relative viability: 0.88
[1]; first compound 0.5 µM
  relative viability: 0.101
[2]; first compound 0.02 µM
  relative viability: 0.952
[2]; first compound 0.2 µM
  relative viability: 0.85
[2]; first compound 0.6325 µM
  relative viability: 0.774
[2]; first compound 2 µM
  relative viability: 0.851
[3]; first compound 0.02 µM
  relative viability: 0.356
[3]; first compound 0.2 µM
  relative viability: 0.321
[3]; first compound 0.6325 µM
  relative viability: 0.338
[3]; first compound 2 µM
  relative viability: 0.258
[4]; first compound 0.02 µM
  relative viability: 0.265
[4]; first compound 0.2 µM
  relative viability: 0.265
[4]; first compound 0.6325 µM
  relative viability: 0.297
[4]; first compound 2 µM
  relative viability: 0.266

## RERF-LC-KJ
[1]; first compound 0.005 µM
  relative viability: 0.482
[1]; first compound 0.01581 µM
  relative viability: 0.518
[1]; first compound 0.05 µM
  relative viability: 0.46
[1]; first compound 0.1581 µM
  relative viability: 0.548
[1]; first compound 0.5 µM
  relative viability: 0.441
[2]; first compound 0.02 µM
  relative viability: 0.6
[2]; first compound 0.2 µM
  relative viability: 0.64
[2]; first compound 0.6325 µM
  relative viability: 0.607
[2]; first compound 2 µM
  relative viability: 0.484
[3]; first compound 0.02 µM
  relative viability: 0.876
[3]; first compound 0.2 µM
  relative viability: 0.944
[3]; first compound 0.6325 µM
  relative viability: 0.963
[3]; first compound 2 µM
  relative viability: 0.918
[4]; first compound 0.02 µM
  relative viability: 0.968
[4]; first compound 0.2 µM
  relative viability: 1.09
[4]; first compound 0.6325 µM
  relative viability: 1.06
[4]; first compound 2 µM
  relative viability: 0.923

## SK-LU-1
[1]; first compound 0.005 µM
  relative viability: 0.381
[1]; first compound 0.01581 µM
  relative viability: 0.509
[1]; first compound 0.05 µM
  relative viability: 0.542
[1]; first compound 0.1581 µM
  relative viability: 0.55
[1]; first compound 0.5 µM
  relative viability: 0.549
[2]; first compound 0.02 µM
  relative viability: 0.579
[2]; first compound 0.2 µM
  relative viability: 0.567
[2]; first compound 0.6325 µM
  relative viability: 0.675
[2]; first compound 2 µM
  relative viability: 0.481
[3]; first compound 0.02 µM
  relative viability: 1.3
[3]; first compound 0.2 µM
  relative viability: 0.779
[3]; first compound 0.6325 µM
  relative viability: 0.938
[3]; first compound 2 µM
  relative viability: 0.771
[4]; first compound 0.02 µM
  relative viability: 0.491
[4]; first compound 0.2 µM
  relative viability: 0.403
[4]; first compound 0.6325 µM
  relative viability: 0.516
[4]; first compound 2 µM
  relative viability: 0.506

## SW 1573
[1]; first compound 0.005 µM
  relative viability: 0.416
[1]; first compound 0.01581 µM
  relative viability: 0.466
[1]; first compound 0.05 µM
  relative viability: 0.478
[1]; first compound 0.1581 µM
  relative viability: 0.414
[1]; first compound 0.5 µM
  relative viability: 0.503
[2]; first compound 0.02 µM
  relative viability: 0.5
[2]; first compound 0.2 µM
  relative viability: 0.512
[2]; first compound 0.6325 µM
  relative viability: 0.466
[2]; first compound 2 µM
  relative viability: 0.478
[3]; first compound 0.02 µM
  relative viability: 1.31
[3]; first compound 0.2 µM
  relative viability: 1.29
[3]; first compound 0.6325 µM
  relative viability: 1.24
[3]; first compound 2 µM
  relative viability: 0.701
[4]; first compound 0.02 µM
  relative viability: 0.592
[4]; first compound 0.2 µM
  relative viability: 0.49
[4]; first compound 0.6325 µM
  relative viability: 0.433
[4]; first compound 2 µM
  relative viability: 0.343
